The values that follow come from patent US5556846A, “17-heterocyclyl-14beta-5alpha-androstane, androstene and androstadiene derivatives active on the cardiovascular system, and pharmaceutical compositions containing same” (Sigma-Tau Industrie Farmaceutiche Riunite S.p.A., priority 1992, dated 1996).

The subject of assay [1] is spontaneous hypertensive rats (MHS). Put plainly: blood pressure lowering in spontaneous hypertensive MHS rats (indirect tail-cuff, oral, ten days). Type of assay: in vivo, rat (Milan hypertensive strain. Particulars: n = 7, 20 mg/Kg/os daily in METHOCEL 0.5% w/v; for SBP (systolic blood pressure): controls 172 +/- 2.0; for HR (heart rate): controls 328 +/- 8.6. From the text:
To test the affinity for the receptor site of the Na^+,K^+ -ATPase and the inhibitory activity on the enzyme, the following tests were used: a) displacement of the specific ^3 H-ouabain binding from the Na^+,K^+ -ATPase receptor purified according to Jorghensen (Jorghensen P., BBA, 1974, 356, 36) and Erdmann (Erdmann E. et at., Arzneim.Forsh., 1984, 34, 1314): b) inhibition of the activity of the purified Na^+,K^+ -ATPase measured as % of hydrolysis of ^32 P-ATP in presence and in absence of the tested compound (Doucet A. et at., Am. […] The ability of these compounds to lower blood pressure was tested by using animal models with genetic arterial hypertension, in particular, spontaneous hypertensive rats of the Milan (MHS) (Bianchi G., Ferrari P., Barber B. The Milan Hypertensive strain. In Handbook of hypertension. Vol.4: Experimental and genetic models of hypertension. Ed. W. de jong-Elsevier Science Publishers B.V., 1984: 328-349).
The procedure adopted to test the antihypertensive activity of the compounds on the above mentioned model was the following: systolic blood pressure (SBP) and heart rate (HR) were measured by an indirect tail-cuff method in three-month old hypertensive rats (MHS) before beginning the treatment (basal values). The rats were then subdivided in two groups of at least 7 animals each, one receiving the compound the other, the control group, receiving only the vehicle. The compound, suspended in METHOCEL 0.5% (w/v), was administered daily by mouth, for ten days. SBP and HR were measured daily 6 and 24 hours after the treatment. At the end of the ten day treatment period, a washout period of at least two days was carried out, in order to check for how long the SBP was mantained low or the basal values were re-established.

Assay [2] concerns the target T1, Na^+,K^+ -ATPase (Homo sapiens, UniProt P05023).
T1 construct: Na^+,K^+ -ATPase receptor purified according to Jorghensen; from tissue
Put plainly: displacement of the specific 3H-ouabain binding from the purified Na+,K+-ATPase receptor. The text has this:
(§1) To test the affinity for the receptor site of the Na^+,K^+ -ATPase and the inhibitory activity on the enzyme, the following tests were used: a) displacement of the specific ^3 H-ouabain binding from the Na^+,K^+ -ATPase receptor purified according to Jorghensen (Jorghensen P., BBA, 1974, 356, 36) and Erdmann (Erdmann E. et at., Arzneim.Forsh., 1984, 34, 1314): b) inhibition of the activity of the purified Na^+,K^+ -ATPase measured as % of hydrolysis of ^32 P-ATP in presence and in absence of the tested compound (Doucet A. et at., Am.

Assay [3] deals with T1, Na^+,K^+ -ATPase. The experiment in a line: inhibition of the activity of the purified Na+,K+-ATPase measured as % of hydrolysis of 32P-ATP. In kind it is biochemical.
Source text: as §1

For assay [4] the following is noted: literature statement; cited from earlier work.
[5] abbreviates: 3H-ouabain displacement, purified Na+,K+-ATPase, read-out: Binding ^3 H-Ouab. Displacement log IC50 (converted).
Setting [6] is: purified Na+,K+-ATPase, 32P-ATP hydrolysis, read-out: Inhibitory Activity log IC50 (converted).

In the case of `C[C@]12CC[C@H]3[C@@H](CCC4=C[C@@H](OCCCN)CC[C@@]43C)[C@@]1(O)CC[C@]2(O)c1ccccc1` [Comp. I - ae, 3β-(3-Aminopropoxy)-17β-phenylandrost-4-ene-14β,17α-diol], in assay [1], the “SBP (systolic blood pressure)” value is 157 +/- 3.7 mm Hg and the “HR (heart rate)” value is recorded as 312 +/- 9.4 beats/min.
Regarding `C[C@]12CC[C@H](O)C[C@H]1CC[C@@H]1[C@@H]2CC[C@]2(C)[C@@](O)(C3=CC(=O)OC3)CC[C@]12O` [Ref. comp., 3β,14β,17α-trihydroxy-5β-card-20(22)-enolide, reference compound], the half-inhibitory concentration (IC50) at Na^+,K^+ -ATPase [2] is 1.26 µM; against Na^+,K^+ -ATPase [3], 5.01 µM. For the same molecule, the “SBP (systolic blood pressure)” value in assay [1] is recorded as 174 +/- 2.1 mm Hg. In addition, in assay [1], the “HR (heart rate)” value is 340 +/- 10.2 beats/min. Also, in assay [4], the antihypertensive action result is “do not show antihypertensive action”.
With `C[C@]12CC[C@H](O)C[C@@H]1CC[C@@H]1[C@@H]2CC[C@]2(C)[C@@](O)(c3ccccc3)CC[C@]12O` [Comp. I - ay, 17β-Phenyl-5α-androstane-3β,14β,17α-triol], the IC50 on Na^+,K^+ -ATPase [2] (setting [5]) was 5.01 µM; at Na^+,K^+ -ATPase [3] (setting [6]), 79.4 µM.
Consider `C[C@]12CC[C@H]3[C@@H](CCC4=C[C@@H](O)CC[C@@]43C)[C@@]1(O)CC[C@]2(O)c1ccccc1` [Comp. I - ac, 17β-Phenylandrost-4-ene-3β,14β,17α-triol], for which the figures for the half-maximal inhibitory concentration (IC50) at Na^+,K^+ -ATPase [2] (setting [5]) and on Na^+,K^+ -ATPase [3] (setting [6]) were 6.31 µM and 79.4 µM, respectively.
For `C[C@]12CC[C@H](O)C[C@@H]1CC[C@@H]1[C@@H]2CC[C@]2(C)[C@@](O)(c3cccnc3)CC[C@]12O` [Comp. I - bl, 17β-(3-Pyridyl)-5α-androstane-3β,14β,17α-triol], on Na^+,K^+ -ATPase [2] (setting [5]), the half-inhibitory concentration (IC50) was 5.01 µM. Besides, the IC50 at Na^+,K^+ -ATPase [3] (setting [6]) was 63.1 µM. In assay [1], the “SBP (systolic blood pressure)” value is listed as 156 +/- 3.5 mm Hg and the “HR (heart rate)” value is 318 +/- 9.5 beats/min.
With `C[C@]12CC[C@H]3[C@@H](CC=C4C[C@@H](O)CC[C@@]43C)[C@@]1(O)CC[C@]2(O)c1ccc(Cl)cc1` [Comp. I - bj, 17β-(4-Chlorophenyl)androst-5-ene-3β,14β,17α-triol], the figures for the half-inhibitory concentration (IC50) on Na^+,K^+ -ATPase [2] (setting [5]) and at Na^+,K^+ -ATPase [3] (setting [6]) were 5.01 µM and 100 µM, respectively.
For `C[C@]12CC[C@H]3[C@@H](CCC4=C[C@@H](OCCN5CCCC5)CC[C@@]43C)[C@@]1(O)CC[C@]2(O)c1ccoc1` [Comp. I - br, 3β-(2-(1-Prrolidinyl)ethoxy)-17β-(3-furyl)androst-4-ene-14β,17α-diol], the half-inhibitory concentration (IC50) was 1.58 µM on Na^+,K^+ -ATPase [2] (setting [5]) and 25.1 µM at Na^+,K^+ -ATPase [3] (setting [6]).
In the same order, the values of `C[C@]12CC[C@H]3[C@@H](C=CC4=C[C@@H](O)CC[C@@]43C)[C@@]1(O)CC[C@]2(O)c1ccccc1` [Comp. I - au, 17β-Phenylandrosta-4,6-diene-3β,14β,17α-triol] are 5.01 µM and 31.6 µM.
For the molecule `C[C@]12CC[C@H]3[C@@H](CCC4=C[C@@H](OCC(N)CN)CC[C@@]43C)[C@@]1(O)CC[C@]2(O)c1ccoc1` (stereo partly drawn) [Comp. I - bw, 3β-((2RS)-2,3-Diaminopropoxy)-17β-(3-furyl)-androst-4-ene-14β,17α-diol], the IC50 at Na^+,K^+ -ATPase [2] (setting [5]) is 3.98 µM; on Na^+,K^+ -ATPase [3] (setting [6]) it was 100 µM.
In the case of `C[C@]12CC[C@H]3[C@@H](CCC4=C[C@@H](SCCCN)CC[C@@]43C)[C@@]1(O)CC[C@]2(O)c1ccoc1` [Comp. I - by, 3β-(3-Aminopropylthio)-17β-(3-furyl)androst-4-ene-14β,17α-diol], the results for the IC50 at Na^+,K^+ -ATPase [2] (setting [5]) and on Na^+,K^+ -ATPase [3] (setting [6]) were 1.58 µM and 12.6 µM, respectively.
Regarding `CNCCO[C@@H]1C=C2CC[C@@H]3[C@H](CC[C@]4(C)[C@@](O)(c5ccoc5)CC[C@]34O)[C@@]2(C)CC1` [Comp. I - bt, 3β-(2-Methylaminoethoxy)-17β-(3-furyl)androst-4-ene-14β,17α-diol], the IC50 on Na^+,K^+ -ATPase [2] (setting [5]) was 3.16 µM; at Na^+,K^+ -ATPase [3] (setting [6]), 50.1 µM.
`CN(C)c1ccc([C@@]2(O)CC[C@]3(O)[C@@H]4CC=C5C[C@@H](O)CC[C@]5(C)[C@H]4CC[C@]23C)cc1` [Comp. I - bp, 17β-(4-(N,N-Dimethylaminophenyl))androst-5-ene-3β,14β,17α-triol]: the results for the IC50 on Na^+,K^+ -ATPase [2] (setting [5]) and on Na^+,K^+ -ATPase [3] (setting [6]) were 6.31 µM and 50.1 µM, respectively.
For `COc1ccc([C@@]2(O)CC[C@]3(O)[C@@H]4CCC5=C[C@@H](O)CC[C@]5(C)[C@H]4CC[C@]23C)cc1` [Comp. I - bi, 17β-(4-Methoxyphenyl)androst-4-ene-3β,14β,17α-triol], the results for the IC50 at Na^+,K^+ -ATPase [2] (setting [5]) and at Na^+,K^+ -ATPase [3] (setting [6]) were 3.16 µM and 39.8 µM, respectively.
On to `C[C@]12CC[C@H](O)C[C@@H]1CC[C@@H]1[C@@H]2CC[C@]2(C)[C@@](O)(c3ccsc3)CC[C@]12O` [Comp. I - bk, 17β-(3-Thienyl)-5α-androstane-3β,14β,17α-triol], for which the IC50 on Na^+,K^+ -ATPase [2] (setting [5]) was 7.94 µM; on Na^+,K^+ -ATPase [3] (setting [6]) it was 63.1 µM.
Consider `C[C@]12CC[C@H]3[C@@H](CCC4=C[C@@H](OCCCNC(=N)N)CC[C@@]43C)[C@@]1(O)CC[C@]2(O)c1ccoc1` [Comp. I - bu], for which the IC50 on Na^+,K^+ -ATPase [2] (setting [5]) was 3.16 µM; on Na^+,K^+ -ATPase [3] (setting [6]) it was 63.1 µM.
Consider `C[C@]12CC[C@H]3[C@@H](CCC4=C[C@@H](OCCCN)CC[C@@]43C)[C@@]1(O)CC[C@]2(O)c1ccoc1` [Comp. I - aj, 3β-(3-Aminopropoxy)-17β-(3-furyl)androst-4-ene-14β,17α-diol], for which the concentration for half-maximal inhibition (IC50) at Na^+,K^+ -ATPase [2] (setting [5]) was 1 µM; on Na^+,K^+ -ATPase [3] (setting [6]) it was 12.6 µM. Also, the “SBP (systolic blood pressure)” value in assay [1] was 150 +/- 3.9 mm Hg. Moreover, the “HR (heart rate)” value in assay [1] is recorded as 310 +/- 9.0 beats/min.
Take `C[C@]12CC[C@H]3[C@@H](CCC4=C[C@@H](OCCO)CC[C@@]43C)[C@@]1(O)CC[C@]2(O)c1ccoc1` [Comp. I - ai, 3β-(2-Hydroxyethoxy)-17β-(3-furyl)androst-4-ene-14β,17α-diol]: the results for the half-inhibitory concentration (IC50) on Na^+,K^+ -ATPase [2] (setting [5]) and on Na^+,K^+ -ATPase [3] (setting [6]) were 5.01 µM and 39.8 µM, respectively.
For `C[C@]12CC[C@H]3[C@@H](CCC4=C[C@@H](O)CC[C@@]43C)[C@@]1(O)CC[C@]2(O)c1ccoc1` [Comp. I - ah, 17β-(3-Furyl)androst-4-ene-3β,14β,17α-triol], the IC50 on Na^+,K^+ -ATPase [2] (setting [5]) was 3.16 µM. The IC50 on Na^+,K^+ -ATPase [3] (setting [6]) is 50.1 µM. In addition, in assay [1], the “SBP (systolic blood pressure)” value is reported as 154 +/- 4.1 mm Hg and the “HR (heart rate)” value is 315 +/- 10.1 beats/min.
On to `C[C@]12CC[C@H]3[C@@H](CC=C4C[C@@H](O)CC[C@@]43C)[C@@]1(O)CC[C@]2(O)c1nccs1` [Comp. I - bn, 17β-(2-Thiazolyl)androst-5-ene-3β,14β,17α-triol], for which the IC50 on Na^+,K^+ -ATPase [2] (setting [5]) is 7.94 µM; on Na^+,K^+ -ATPase [3] (setting [6]), 63.1 µM.
In the same order, the values of `C[C@]12C=C[C@H](O)C[C@@H]1CC[C@@H]1[C@@H]2CC[C@]2(C)[C@@](O)(c3ccoc3)CC[C@]12O` [Comp. I - ab, 17β-(3-Furyl)-5α-androst-1-ene-3β,14β, 17α-triol] are 3.98 µM and 31.6 µM.
With `C[C@]12CC[C@H]3[C@@H](CC=C4C[C@@H](O)CC[C@@]43C)[C@@]1(O)CC[C@]2(O)c1ccccc1` [Comp. I - ap, 17β-Phenylandrost-5-ene-3β,14β,17α-triol], the values for the IC50 at Na^+,K^+ -ATPase [2] (setting [5]) and at Na^+,K^+ -ATPase [3] (setting [6]) were 7.94 µM and 100 µM, respectively.
Consider `C[C@]12CC[C@H]3[C@@H](CC=C4C[C@@H](O)CC[C@@]43C)[C@@]1(O)CC[C@]2(O)c1ccco1` [Comp. I - bq, 17β-(2-Furyl)androst-5-ene-3β,14β,17α-triol], for which the half-maximal inhibitory concentration (IC50) on Na^+,K^+ -ATPase [2] (setting [5]) is 5.01 µM; at Na^+,K^+ -ATPase [3] (setting [6]) it was 79.4 µM.
For `C[C@]12CC[C@H]3[C@@H](CCC4=C[C@@H](OCC(O)CO)CC[C@@]43C)[C@@]1(O)CC[C@]2(O)c1ccoc1` (stereo partly drawn) [Comp. I - bv, 3β-((2RS)-2,3-Dihydroxypropoxy)-17β-(3-furyl)androst-4-ene-14β,17α-diol], the values for the IC50 on Na^+,K^+ -ATPase [2] (setting [5]) and on Na^+,K^+ -ATPase [3] (setting [6]) were 3.98 µM and 79.4 µM, respectively.
